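Five concentrations, 48 hours, 96-well plates. Here, GI50 denotes the concentration required for 50% inhibition of growth. TGI: concentration producing complete growth inhibition.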
Columns and labels:
Assay in all cases: DTP human tumour cell line panel, 48 h
786-0 renal = tested on: 786-0 renal
HOP-62 NSCLC = tested on: HOP-62 NSCLC
HT29 colon = tested on: HT29 colon
MALME-3M melanoma = tested on: MALME-3M melanoma
OVCAR-4 ovarian = tested on: OVCAR-4 ovarian
RPMI-8226 leukemia = tested on: RPMI-8226 leukemia
SNB-19 CNS = tested on: SNB-19 CNS
TK-10 renal = tested on: TK-10 renal
HOP-18 NSCLC = tested on: HOP-18 NSCLC

Row | SMILES | TGI (786-0 renal) [µM] | TGI (HOP-62 NSCLC) [µM] | TGI (HT29 colon) [µM] | TGI (MALME-3M melanoma) [µM] | TGI (OVCAR-4 ovarian) [µM] | TGI (RPMI-8226 leukemia) [µM] | TGI (SNB-19 CNS) [µM] | TGI (TK-10 renal) [µM] | GI50 (786-0 renal) [µM] | GI50 (HOP-62 NSCLC) [µM] | GI50 (HT29 colon) [µM] | GI50 (MALME-3M melanoma) [µM] | GI50 (OVCAR-4 ovarian) [µM] | GI50 (RPMI-8226 leukemia) [µM] | GI50 (SNB-19 CNS) [µM] | GI50 (TK-10 renal) [µM] | TGI (HOP-18 NSCLC) [µM]
1 | Cc1ccc2c(c1)NC(=O)CC(c1ccccc1)=N2 | > 100 | > 100 | > 100 | > 100 | > 100 | 76.7 | > 100 | > 100 | – | – | – | – | – | – | – | – | –
2 | COc1ccc(/C=C/C(=O)Oc2cc(O)cc(O)c2)cc1 | > 100 | 31.5 | > 100 | > 100 | > 100 | 42.4 | > 100 | > 100 | – | – | – | – | – | – | – | – | –
3 | COc1ccccc1C#Cc1ccccc1C#CCCCCCC#Cc1ccccc1C#Cc1ccccc1OC | > 100 | > 100 | > 100 | > 100 | 84.4 | > 100 | > 100 | > 100 | > 100 | > 100 | 24.6 | > 100 | 13.7 | 29 | > 100 | > 100 | –
4 | O=C(Nc1ccccc1O)c1ccc(Oc2cccc(C(=O)Nc3ccccc3O)c2)cc1 | 12.2 | 12.5 | 16.9 | 14 | 9.03 | 8.78 | 14.4 | 30.2 | 2.84 | 2.24 | 4.93 | 1.48 | 2.42 | 2.84 | 2.08 | 7.64 | –
5 | c1ccc(-c2nc(-c3ccccc3)c(-c3ccccc3)[nH]2)cc1 | > 100 | > 100 | > 100 | > 100 | > 100 | > 72.9 | > 100 | > 100 | – | – | – | – | – | – | – | – | –
6 | C=C1C(=O)O[C@H]2[C@H]1CC/C(COC(=O)CSCC(=O)OC/C1=C/CC[C@@]3(C)O[C@H]3[C@H]3OC(=O)C(=C)[C@@H]3CC1)=C\CC[C@@]1(C)O[C@@H]21 | 3.22 | 20.2 | 2.56 | 2.8 | 4.6 | 4.01 | 13.9 | 3.27 | 1.5 | 5.25 | 1.22 | 1.24 | 1.79 | 1.45 | 3.11 | 1.69 | –
7 | C=CCC1(O)c2cccc(NCCO)c2C(=O)c2c(NCCO)cccc21 | > 100 | > 100 | > 100 | > 100 | > 100 | > 100 | > 100 | > 100 | > 100 | > 100 | > 100 | > 100 | > 100 | > 100 | > 100 | > 100 | –
8 | NS(=O)(=O)c1cccc(N=Cc2c(O)[nH]c3ccccc23)c1 | > 25 | > 25 | > 25 | > 25 | > 25 | > 25 | > 25 | > 25 | > 25 | > 25 | > 25 | > 25 | > 25 | > 25 | > 25 | > 17.7 | –
9 | O=C(O)c1cc(N=Cc2ccccc2O)cc(C(=O)O)c1 | > 100 | > 100 | > 100 | > 100 | > 100 | > 100 | > 100 | > 100 | – | – | – | – | – | – | – | – | –
10 | Fc1ccc(C2SCc3nc4ccccc4n32)cc1 (centres undefined) | > 100 | > 100 | > 100 | 73.1 | > 100 | > 100 | 9.64 | 72 | – | – | – | – | – | – | – | – | –
11 | COc1ccc(C(=O)c2cc3c(OC)c(OC)c(OC)cc3[nH]2)cc1 | > 100 | 80.9 | > 100 | > 100 | > 100 | 8.13 | > 100 | > 100 | 11.9 | 19.6 | 4 | 5.8 | > 100 | 2.81 | 18.6 | 39.6 | –
12 | Cc1c2c[n+](C(C)C)ccc2c(C)c2c1[nH]c1ccccc12 | > 100 | 36.1 | 58.8 | 6.9 | 15.4 | 13.1 | 14.7 | > 100 | 1.53 | 2.35 | 3.15 | 1.48 | 2.61 | 1.82 | 0.416 | 21.1 | –
13 | Nc1c(C(=O)Nc2ccccc2)[n+]([O-])c2ccccc2[n+]1[O-] | 27.1 | 34.4 | 37 | – | 33.5 | > 100 | 31 | 42.2 | – | – | – | – | – | – | – | – | 26.3
14 | C=C1C(=O)O[C@H]2[C@H]1CC/C(COC(=O)NCCc1c[nH]c3ccc(OC)cc13)=C\CC[C@@]1(C)O[C@@H]21 | 3.47 | 15.7 | 3.09 | 3.9 | 5.09 | 4.74 | 21.9 | 3.11 | 1.46 | 3.49 | 1.58 | 1.91 | 1.69 | 1.44 | 10 | 1.61 | –
15 | COc1ccc2c(c1)C(=O)/C(=C/c1ncc([N+](=O)[O-])n1C)O2 | 5.07 | 5.03 | 0.78 | 1.07 | 7.12 | 2.06 | 6.08 | 13.8 | 1.51 | 2.07 | 0.244 | 0.288 | 2.27 | 0.416 | 1.26 | 1.38 | –
16 | CC(=O)O/N=C1/C(c2c(O)[nH]c3cc(Br)ccc23)=Nc2ccccc21 | 8.06 | 4.53 | 3.65 | 8.42 | 3.93 | 5.27 | 11.1 | 5.32 | 1.92 | 2.05 | 1.84 | 3.48 | 1.6 | 2.03 | 4.26 | 2.09 | –
17 | CCCCCCCCCCCCSC(=N)N | 33.9 | 28.9 | 5.73 | 29.5 | 27.9 | 10.2 | 45.7 | 32.3 | 15.3 | 10.7 | 2.2 | 15 | 7.93 | 2.94 | 15.7 | 16.4 | –
